Reference: patent US4206235A, “Novel 2,5-dihalophenyl-β-substituted sulfone fungicides” (priority 1976, dated 1980)
Converted amounts (≈) assume the structure as drawn. “And” between values parts separate entries of the source, which are not always exact repeats. Equal values may be shown once.

Legend:
[1] = tested on: Fusarium oxysporum sp. f.lycopersici; assay: Fungitoxicity in culture media (agar), growth inhibition; assay type: cell-based; settings: 50% inhibition of growth, read-out: ED50 (the source's name)
Method: (§1) Acetone solutions of the compound were mixed with an aliquot of distilled water and the fine suspension obtained was mixed with cooled but melted agar medium and poured into Petri dishes.
(§2) The tested fungi were grown on the solidified media. Growth of the fungus was measured and percent inhibition was calculated by comparing with the appropriate acetone-water controls. Media were usually Martin's or potato-dextrose agar media.
(§3) ED50 = effective dose, sufficient for the 50% inhibition of growth of the fungus, expressed in p.p.m.

Pythium aphanidermatum = assay: as above; assay type: cell-based; settings: 50% inhibition of growth, read-out: ED50 (the source's name)
Method: as §1, §2, §3

Rhizoctonia bataticola = assay: as above; assay type: cell-based; settings: Macrophomina phaseolina, 50% inhibition of growth, read-out: ED50 (the source's name)
Method: as §1, §2, §3

Rhizoctonia solani = assay: as above; assay type: cell-based; settings: 50% inhibition of growth, read-out: ED50 (the source's name)
Method: as §1, §2, §3

Rhizopus stolonifer = assay: as above; assay type: cell-based; settings: 50% inhibition of growth, read-out: ED50 (the source's name)
Method: as §1, §2, §3

Sclerotinia rolfsil = assay: as above; assay type: cell-based; settings: 50% inhibition of growth, read-out: ED50 (the source's name)
Method: as §1, §2, §3

Penicillium funiculosum = assay: Halo test on plasticized PVC sheeting; assay type: cell-based; design: key to growth under the test sample (GUS): +: no reduction in growth; ±: slight reduction in growth; .-+.: moderate reduction in growth; -: complete reduction in growth
Trichoderma viride = assay: Halo test on plasticized PVC sheeting; assay type: cell-based; design: key to growth under the test sample (GUS): +: no reduction in growth; ±: slight reduction in growth; .-+.: moderate reduction in growth; -: complete reduction in growth
Aspergillus flavus = assay: Halo test on plasticized PVC sheeting; assay type: cell-based; design: key to growth under the test sample (GUS): +: no reduction in growth; ±: slight reduction in growth; .-+.: moderate reduction in growth; -: complete reduction in growth
Aspergillus niger [2] = assay: Halo test on plasticized PVC sheeting; assay type: cell-based; design: key to growth under the test sample (GUS): +: no reduction in growth; ±: slight reduction in growth; .-+.: moderate reduction in growth; -: complete reduction in growth
[3] = tested on: Cladosporium cladosporoides; assay: Halo test on plasticized PVC sheeting; assay type: cell-based; design: key to growth under the test sample (GUS): +: no reduction in growth; ±: slight reduction in growth; .-+.: moderate reduction in growth; -: complete reduction in growth
Paecilomyces varioti [4] = assay: Halo test on plasticized PVC sheeting; assay type: cell-based; design: key to growth under the test sample (GUS): +: no reduction in growth; ±: slight reduction in growth; .-+.: moderate reduction in growth; -: complete reduction in growth
Alternaria tenuis = assay: Halo test on plasticized PVC sheeting; assay type: cell-based; design: key to growth under the test sample (GUS): +: no reduction in growth; ±: slight reduction in growth; .-+.: moderate reduction in growth; -: complete reduction in growth; settings: for Zone of growth inhibition (halo): brackets = growth partially suppressed
common moulds = assay: Activity against common moulds on plasticized PVC sheets; assay type: cell-based
[5] = tested on: mixed spore suspension of Aspergillus flavus, Aspergillus niger, Paecilomyces varioti, Penicillium funiculosum, Trichoderma viride, Alternaria tenuis …; assay: Weight Loss Test of PVC sheeting; settings: 14 days at 28° C.; for % weight loss: single strip
Aspergillus niger [6] = assay: Agar incorporation test; assay type: cell-based; settings: 120 h, 5 days at 28° C., A. niger
Method: (§4) Pure cultures of fungi Paecilomyces varioti, Cladosporium cladosporides, Penicillium funivulosum, and Aspergillus niger were exposed to a range of dilutions of the compound viz: 10,000, 3,000, 1,000, 600, 300, 100, 30, 10, 1 ppm incorporated into agar via […]. The fungal plates were incubated for 5 days at 28° C. The plates were then assessed for either the presence or absence of growth and the minimum inhibitory concentration (MIC) in ppm recorded.

[7] = tested on: Cladosporium cladosporides; assay: Agar incorporation test; assay type: cell-based; settings: 120 h, 5 days at 28° C.
Method: as §4

Paecilomyces varioti [8] = assay: Agar incorporation test; assay type: cell-based; settings: 120 h, 5 days at 28° C., P. varioti
Method: as §4

Penicillium funivulosum = assay: Agar incorporation test; assay type: cell-based; settings: 120 h, 5 days at 28° C., P. funiculosum
Method: The fungal plates were incubated for 5 days at 28° C. The plates were then assessed for either the presence or absence of growth and the minimum inhibitory concentration (MIC) in ppm recorded.

two-spotted mite = assay: Activity against the two-spotted mite
[9] = 0.5% in PVC sheeting, brackets = growth partially suppressed

COC(=O)C(Cl)CS(=O)(=O)c1cc(Cl)ccc1Cl (stereo not drawn) [Example 3, 2,5-dichlorophenyl-β-carboxymethyl-β'-chloroethyl sulfone] gave an IC50 [1] of over 50 µg/mL, an IC50 (Pythium aphanidermatum) of over 50 µg/mL and an IC50 (Rhizoctonia bataticola) of 50 µg/mL (≈ 151 µM). For the same compound, the IC50 (Rhizoctonia solani) was 20 µg/mL (≈ 60.3 µM), the IC50 (Rhizopus stolonifer) was over 50 µg/mL and the IC50 (Sclerotinia rolfsil) was 50 µg/mL (≈ 151 µM). The “growth under the test sample (GUS)” value (Penicillium funiculosum; 0.5% in PVC sheeting) was “-”, the “Zone of growth inhibition (halo)” value (Penicillium funiculosum; [9]) was 4 millimetres and the “Zone of growth inhibition (halo)” value (Penicillium funiculosum; 1% in PVC sheeting) was 8 millimetres. The “growth under the test sample (GUS)” value (Penicillium funiculosum; 1% in PVC sheeting) was “-”, the “Zone of growth inhibition (halo)” value (Trichoderma viride; 0.5% in PVC sheeting) was 2 millimetres and the “growth under the test sample (GUS)” value (Trichoderma viride; 0.5% in PVC sheeting) was “.-+”. For the same compound, the “Zone of growth inhibition (halo)” value (Trichoderma viride; 1% in PVC sheeting) was 5 millimetres, the “growth under the test sample (GUS)” value (Trichoderma viride; 1% in PVC sheeting) was “.-+” and the “Zone of growth inhibition (halo)” value (Aspergillus flavus; 0.5% in PVC sheeting) was 1 millimetres. For the same compound, the “growth under the test sample (GUS)” value (Aspergillus flavus; 0.5% in PVC sheeting) was “.-+”, the “Zone of growth inhibition (halo)” value (Aspergillus flavus; 1% in PVC sheeting) was 1 millimetres and the “growth under the test sample (GUS)” value (Aspergillus flavus; 1% in PVC sheeting) was “.-+”. The “growth under the test sample (GUS)” value (Aspergillus niger [2]; 0.5% in PVC sheeting) was “-”, the “Zone of growth inhibition (halo)” value (Aspergillus niger [2]; [9]) was 2 millimetres and the “Zone of growth inhibition (halo)” value (Aspergillus niger [2]; 1% in PVC sheeting) was 6 millimetres. The “growth under the test sample (GUS)” value (Aspergillus niger [2]; 1% in PVC sheeting) was “-”, the “growth under the test sample (GUS)” value ([3]; 0.5% in PVC sheeting) was “-” and the “Zone of growth inhibition (halo)” value [3, 9] was 4 millimetres. For the same compound, the “Zone of growth inhibition (halo)” value ([3]; 1% in PVC sheeting) was 9 millimetres, the “growth under the test sample (GUS)” value ([3]; 1% in PVC sheeting) was “-” and the “Zone of growth inhibition (halo)” value (Paecilomyces varioti [4]; 0.5% in PVC sheeting) was 5 millimetres. The “growth under the test sample (GUS)” value (Paecilomyces varioti [4]; 0.5% in PVC sheeting) was “-”, the “Zone of growth inhibition (halo)” value (Paecilomyces varioti [4]; 1% in PVC sheeting) was 10 millimetres and the “growth under the test sample (GUS)” value (Paecilomyces varioti [4]; 1% in PVC sheeting) was “-”. For the same compound, the “growth under the test sample (GUS)” value (Alternaria tenuis; 0.5% in PVC sheeting) was “-”, the “Zone of growth inhibition (halo)” value (Alternaria tenuis; 0.5% in PVC sheeting) was 5 millimetres and the “growth under the test sample (GUS)” value (Alternaria tenuis; 1% in PVC sheeting) was “-”. The “Zone of growth inhibition (halo)” value (Alternaria tenuis; 1% in PVC sheeting) was 10 millimetres, the “inhibition of the growth of common moulds on PVC sheets” value (common moulds; 0.5% by weight, PVC plasticized with 30% dialkyl sebacate) was “Complete inhibition” and the inhibition of fungi (common moulds; 0.5% in sheeting, halo test, seven fungi) was “all fungi were inhibited”. For the same compound, the “inhibition of fungal attack” value (common moulds; 0.5 and 1.0% in sheeting) was “virtual complete inhibition of fungal attack”, the “degree of inhibition against the seven fungi” value (common moulds; 1.0% in sheeting, halo test) was “good” and the “Mean % loss as plasticizer” value ([5]; 0.5%) was 1.8%. The “Mean % weight loss” value ([5]; 0.5%) was 0.6%, the “% weight loss” value ([5]; 0.5%) was 0.7% and 0.6% and 0.4% and 0.5% and the “Mean % loss as plasticizer” value ([5]; 1.0%) was 0.6%. The “Mean % weight loss” value ([5]; 1.0%) was 0.2%, the “% weight loss” value ([5]; 1.0%) was 0.4% and 0.1% and 0.01% and 0.2% and the MIC (Aspergillus niger [6]) was 100 µg/mL (≈ 302 µM). It also gave an MIC [7] of 100 µg/mL (≈ 302 µM), an MIC (Paecilomyces varioti [8]) of 100 µg/mL (≈ 302 µM) and an MIC (Penicillium funivulosum) of 30 µg/mL (≈ 90.5 µM).
O=S(=O)(C=C(Cl)Cl)c1cc(Cl)ccc1Cl [Example 4, 2,5-dichlorophenyl-β, β-dichlorovinyl sulfone] gave an IC50 [1] of 5 µg/mL (≈ 16.3 µM), an IC50 (Pythium aphanidermatum) of 1 µg/mL (≈ 3.27 µM) and an IC50 (Rhizoctonia bataticola) of 5 µg/mL (≈ 16.3 µM). For the same compound, the IC50 (Rhizoctonia solani) was 5 µg/mL (≈ 16.3 µM), the IC50 (Sclerotinia rolfsil) was 10 µg/mL (≈ 32.7 µM) and the “activity against the two-spotted mite” value (two-spotted mite) was “strong activity”.
